Reference: PubChem BioAssay AID1963836 (Molecular Pharmacology Branch, DTP, NCI, 2024)

System: 857933-349-R-J2-PDC complex spheroid viability
Assay: Anticancer human tumor 857933-349-R-J2-PDC patient-derived colon adenocarcinoma cell line growth inhibition [POLQ]
Conditions: for IC50: curve of first compound; for viability, T/C: stronger effect = lower value
In short: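 Growth inhibition in 3D: complex spheroids (tumor PDC, HUVEC, MSC) treated with POLQ inhibitor combinations; where Cmax unknown, highest tested concentration 10 microM, except SN-38 at 1 microM.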

[1] = second compound 0.0316 µM, first compound 0.0316 µM
[2] = second compound 0.0316 µM, first compound 0.1 µM
[3] = second compound 0.0316 µM, first compound 0.316 µM
[4] = second compound 0.0316 µM, first compound 1 µM
[5] = second compound 0.0316 µM, first compound 3.16 µM
[6] = second compound 0.0316 µM, first compound 10 µM
[7] = second compound 0.1 µM, first compound 0.0316 µM
[8] = second compound 0.1 µM, first compound 0.1 µM
[9] = second compound 0.1 µM, first compound 0.316 µM
[10] = second compound 0.1 µM, first compound 1 µM
[11] = second compound 0.1 µM, first compound 3.16 µM
[12] = second compound 0.1 µM, first compound 10 µM
[13] = second compound 0.316 µM, first compound 0.0316 µM
[14] = second compound 0.316 µM, first compound 0.1 µM
[15] = second compound 0.316 µM, first compound 0.316 µM
[16] = second compound 0.316 µM, first compound 1 µM
[17] = second compound 0.316 µM, first compound 3.16 µM
[18] = second compound 0.316 µM, first compound 10 µM
[19] = second compound 1 µM, first compound 0.0316 µM
[20] = second compound 1 µM, first compound 0.1 µM
[21] = second compound 1 µM, first compound 0.316 µM
[22] = second compound 1 µM, first compound 1 µM
[23] = second compound 1 µM, first compound 3.16 µM
[24] = second compound 1 µM, first compound 10 µM
[25] = second compound 3.16 µM, first compound 0.0316 µM
[26] = second compound 3.16 µM, first compound 0.1 µM
[27] = second compound 3.16 µM, first compound 0.316 µM
[28] = second compound 3.16 µM, first compound 1 µM
[29] = second compound 3.16 µM, first compound 3.16 µM
[30] = second compound 3.16 µM, first compound 10 µM
[31] = second compound 10 µM, first compound 0.0316 µM
[32] = second compound 10 µM, first compound 0.1 µM
[33] = second compound 10 µM, first compound 0.316 µM
[34] = second compound 10 µM, first compound 1 µM
[35] = second compound 10 µM, first compound 3.16 µM
[36] = second compound 10 µM, first compound 10 µM
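Further: spheroids exposed to compounds for seven days before readout.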

Structure (SMILES): COc1cc(C2c3cc4c(cc3C(OC3OC5COC(C)OC5C(O)C3O)C3COC(=O)C23)OCO4)cc(OC)c1O (centres undefined) + Nc1ccc(C#CCN(C(=O)Cc2ncc(C(F)(F)F)cc2C(F)(F)F)c2ccc(F)cc2)nn1
- IC50 (second compound 0.0316 µM): 1290 nM
- IC50 (second compound 0.1 µM): 747 nM
- IC50 (second compound 0.316 µM): 567 nM
- IC50 (second compound 1 µM): 532 nM
- IC50 (second compound 3.16 µM): 512 nM
- IC50 (second compound 10 µM): 599 nM
- viability, T/C [1]: 97.1%
- viability, T/C [2]: 64.8%
- viability, T/C [3]: 64.5%
- viability, T/C [4]: 64%
- viability, T/C [5]: 38%
- viability, T/C [6]: 25.9%
- viability, T/C [7]: 92.5%
- viability, T/C [8]: 72.5%
- viability, T/C [9]: 53.6%
- viability, T/C [10]: 52.3%
- viability, T/C [11]: 36.8%
- viability, T/C [12]: 22.1%
- viability, T/C [13]: 94.2%
- viability, T/C [14]: 68.4%
- viability, T/C [15]: 53.5%
- viability, T/C [16]: 50.6%
- viability, T/C [17]: 35.9%
- viability, T/C [18]: 25.3%
- viability, T/C [19]: 101%
- viability, T/C [20]: 68%
- viability, T/C [21]: 54.3%
- viability, T/C [22]: 51.9%
- viability, T/C [23]: 33.3%
- viability, T/C [24]: 31.5%
- viability, T/C [25]: 85.3%
- viability, T/C [26]: 74%
- viability, T/C [27]: 53%
- viability, T/C [28]: 44.6%
- viability, T/C [29]: 31%
- viability, T/C [30]: 27.6%
- viability, T/C [31]: 88%
- viability, T/C [32]: 71.5%
- viability, T/C [33]: 60%
- viability, T/C [34]: 43.1%
- viability, T/C [35]: 34.1%
- viability, T/C [36]: 32.2%

Structure (SMILES): COc1ccc([C@@H](O)c2cc(-c3ncnc4cc(N5CCOCC5)ccc34)c(F)cc2Cl)nn1 + Cc1cccc(N(C)C(=O)C2C(O)CCN2c2nc(C)cc(C(F)(F)F)c2C#N)c1
- IC50 (second compound 0.0316 µM): > 10000 nM
- IC50 (second compound 0.1 µM): > 10000 nM
- IC50 (second compound 0.316 µM): > 10000 nM
- IC50 (second compound 1 µM): > 10000 nM
- IC50 (second compound 3.16 µM): 8540 nM
- IC50 (second compound 10 µM): > 10000 nM
- viability, T/C [1]: 118%
- viability, T/C [2]: 90.8%
- viability, T/C [3]: 88.6%
- viability, T/C [4]: 73.4%
- viability, T/C [5]: 71.6%
- viability, T/C [6]: 64.2%
- viability, T/C [7]: 91.8%
- viability, T/C [8]: 114%
- viability, T/C [9]: 91.1%
- viability, T/C [10]: 79%
- viability, T/C [11]: 72.8%
- viability, T/C [12]: 57.7%
- viability, T/C [13]: 110%
- viability, T/C [14]: 116%
- viability, T/C [15]: 83.6%
- viability, T/C [16]: 88.8%
- viability, T/C [17]: 93.7%
- viability, T/C [18]: 62.8%
- viability, T/C [19]: 91.9%
- viability, T/C [20]: 97.3%
- viability, T/C [21]: 119%
- viability, T/C [22]: 63.8%
- viability, T/C [23]: 91.6%
- viability, T/C [24]: 56.8%
- viability, T/C [25]: 87.1%
- viability, T/C [26]: 87.4%
- viability, T/C [27]: 95.5%
- viability, T/C [28]: 71.5%
- viability, T/C [29]: 85.6%
- viability, T/C [30]: 44.4%
- viability, T/C [31]: 97.9%
- viability, T/C [32]: 97.5%
- viability, T/C [33]: 76.3%
- viability, T/C [34]: 61.6%
- viability, T/C [35]: 71.9%
- viability, T/C [36]: 49.2%
